Reference: patent publication US20060069132A1, “Azolecarboxamide herbicides” (priority 2004, published 2006)

Tests used:
Experiment in all cases: Test C postemergence herbicide test
[1] = tested on: chickweed; assay type: in vivo, Stellaria media; details: for Chickweed plant response rating: 500 g ai/ha
Method: At the same time, plants selected from these crop and weed species and also winter barley (Hordeum vulgare L.), blackgrass (Alopecurus myosuroides Huds.), canarygrass (Phalaris minor Retz.), chickweed (Stellaria media (L.) Vill.), downy bromegrass (Bromus tectorum L.), green foxtail (Setaria viridis (L.) Beauv.), Italian ryegrass (Lolium multiflorum Lam.), wheat (Triticum aestivum L.), wild oat (Avenafatua L.) and windgrass (Apera spica-venti (L.) Beauv.) were treated with postemergence applications of some of the test chemicals formulated in the same manner. Plants ranged in height from 2 to 18 cm (1- to 4-leaf stage) for postemergence treatments. Plant species in the flooded paddy test consisted of rice (Oryza sativa), smallflower umbrella sedge (Cyperus difformis L.), ducksalad (Heteranthera limosa (Sw.) Willd.) and barnyardgrass (Echinochloa crus-galli (L.) Beauv.) grown to the 2-leaf stage for testing. Treated plants and controls were maintained in a greenhouse for 12 to 14 days, after which time all species were compared to controls and visually evaluated. Plant response ratings, summarized in Table C, are based on a scale of 0 to 100 where 0 is no effect and 100 is complete control. A dash (-) response means no test result.

[2] = tested on: winter barley; assay type: in vivo, Hordeum vulgare; details: for Barley, Winter plant response rating: 500 g ai/ha, scale 0 to 100
Summary of the method: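 After a postemergence application at 1 to 4 leaves (plants 2–18 cm high), or at 2 leaves for barnyardgrass in flooded paddy, plants stayed in the greenhouse for 12 to 14 days. Damage was then judged visually relative to control plants, with 100 indicating complete control.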

[3] = tested on: blackgrass; assay type: in vivo, Alopecurus myosuroides; details: for Blackgrass plant response rating: 500 g ai/ha
Summary of the method: (§1)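 Scoring by eye, 12–14 days post-treatment, greenhouse-held plants vs. controls; 0 no effect, 100 complete control. Sprayed at 1–4 leaves (2–18 cm); paddy barnyardgrass at 2 leaves, flooded.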

[4] = tested on: canarygrass; assay type: in vivo, Phalaris minor
Summary of the method: as §1

[5] = tested on: downy bromegrass; assay type: in vivo, Bromus tectorum
Summary of the method: as §1

[6] = tested on: green foxtail; assay type: in vivo, Setaria viridis
Summary of the method: as §1

[7] = tested on: Italian ryegrass; assay type: in vivo, Lolium multiflorum
Summary of the method: as §1

[8] = tested on: wheat; assay type: in vivo, Triticum aestivum
Summary of the method: as §1

[9] = tested on: wild oat; assay type: in vivo, Avenafatua
Summary of the method: as §1

[10] = tested on: windgrass; assay type: in vivo, Apera spica-venti
Summary of the method: as §1

[11] = Postemergence, 250 g ai/ha, scale 0 to 100, 0 no effect, 100 complete control
[12] = postemergence, 125 g ai/ha, scale 0 to 100
[13] = postemergence, 31 g ai/ha, scale 0 to 100
[14] = postemergence, 62 g ai/ha, scale 0 to 100
[15] = postemergence, 125 g ai/ha, scale 0 to 100 (0 no effect, 100 complete control)
[16] = postemergence, 62 g ai/ha, scale 0 to 100 (0 no effect, 100 complete control)
[17] = Postemergence, 500 g ai/ha, scale 0 to 100
[18] = Postemergence, 500 g ai/ha, scale 0 to 100, 0 no effect, 100 complete control

Row | Compound | Plant response rating, Chickweed [1, 11] | Plant response rating, Chickweed [1, 12] | Plant response rating, Chickweed [1, 13] | Plant response rating, Chickweed [1, 14] | Chickweed plant response rating ([1]; Postemergence, scale 0 to 100) | Barley, Winter plant response rating ([2]; Postemergence) | Plant response rating, Barley, Winter [2, 11] | Plant response rating, Barley, Winter [2, 15] | Plant response rating, Barley, Winter [2, 16] | Blackgrass plant response rating ([3]; Postemergence, scale 0 to 100) | Plant response rating, Blackgrass [3, 11] | Plant response rating, Blackgrass [3, 12] | Plant response rating, Blackgrass [3, 14] | Plant response rating, Canarygrass [4, 11] | Plant response rating, Canarygrass [4, 12] | Plant response rating, Canarygrass [4, 14] | Plant response rating, Bromegrass, Downy [5, 11] | Plant response rating, Bromegrass, Downy [5, 12] | Plant response rating, Bromegrass, Downy [5, 14] | Plant response rating, Foxtail, Green [6, 11] | other results
1 | CCn1nc(C(C)(C)C)cc1C(=O)Nc1ccc(F)c(C(=O)NCCF)c1 [Compound 60] | 10 | 10 | 5 | 5 | – | – | – | – | – | – | – | – | – | – | – | – | – | – | – | – | –
2 | CCn1nc(C(C)(C)C)cc1C(=O)Nc1cccc(C(=O)OC)c1 [Compound 81] | 100 | 95 | 90 | 95 | – | – | – | – | – | – | – | – | – | – | – | – | – | – | – | – | –
3 | C#CCOC(=O)c1cccc(NC(=O)c2cc(C(C)(C)C)nn2CC)c1 [Compound 84] | 70 | 50 | – | 0 | 70 | – | – | – | – | – | – | – | – | – | – | – | – | – | – | – | –
4 | C=CCOC(=O)c1cccc(NC(=O)c2cc(C(C)(C)C)nn2CC)c1 [Compound 85] | 100 | 100 | – | 100 | 100 | – | – | – | – | – | – | – | – | – | – | – | – | – | – | – | –
5 | CC(=NO)c1cccc(NC(=O)c2cc(C(C)(C)C)nn2CC(F)(F)F)c1 [Compound 112] | 100 | 10 | – | 0 | 100 | – | – | – | – | – | – | – | – | – | – | – | – | – | – | – | –
6 | CCn1nc(C(C)(C)C)cc1C(=O)Nc1cccc(C#N)c1 [Compound 139] | 80 | 70 | 0 | 0 | – | – | – | – | – | – | – | – | – | – | – | – | – | – | – | – | –
7 | CCn1nc(C(C)(C)C)cc1C(=O)Nc1cccc(C(=O)NC2CC2)n1 [Compound 146] | 100 | 80 | – | 10 | – | – | – | – | – | – | – | – | – | – | – | – | – | – | – | – | –
8 | CCn1nc(C(C)(C)C)cc1C(=O)Nc1cccc(OC(F)(F)F)c1 [Compound 272] | 100 | 100 | – | 95 | 100 | 35 | 35 | 35 | 35 | 65 | 45 | 45 | 35 | 40 | 35 | 35 | 60 | 55 | 30 | 45 | Canarygrass plant response rating [4, 17]: 55; Bromegrass, Downy plant response rating [5, 17]: 65; Foxtail, Green plant response rating [6, 17]: 60; Plant response rating, Foxtail, Green [6, 12]: 40; Plant response rating, Foxtail, Green [6, 14]: 35; Ryegrass, Italian plant response rating [7, 17]: 60; Plant response rating, Ryegrass, Italian [7, 11]: 45; Plant response rating, Ryegrass, Italian [7, 12]: 45; Plant response rating, Ryegrass, Italian [7, 14]: 30; Wheat plant response rating [8, 17]: 35; Plant response rating, Wheat [8, 11]: 35; Plant response rating, Wheat [8, 12]: 35; Plant response rating, Wheat [8, 14]: 30; Oat, Wild plant response rating [9, 17]: 65; Plant response rating, Oat, Wild [9, 11]: 55; Plant response rating, Oat, Wild [9, 12]: 45; Plant response rating, Oat, Wild [9, 14]: 40; Windgrass plant response rating [10, 17]: 85; Plant response rating, Windgrass [10, 12]: 70; Plant response rating, Windgrass [10, 14]: 60
9 | C=CCOc1cccc(NC(=O)c2cc(C(C)(C)C)nn2CC)c1 [Compound 412] | – | – | – | – | – | 50 | 40 | 35 | 30 | 65 | 65 | 45 | 45 | 60 | 45 | 45 | 55 | 45 | 40 | 65 | Plant response rating, Canarygrass [4, 18]: 60; Plant response rating, Bromegrass, Downy [5, 18]: 60; Plant response rating, Foxtail, Green [6, 18]: 65; Plant response rating, Foxtail, Green [6, 12]: 60; Plant response rating, Foxtail, Green [6, 14]: 45; Plant response rating, Ryegrass, Italian [7, 18]: 60; Plant response rating, Ryegrass, Italian [7, 12]: 45; Plant response rating, Ryegrass, Italian [7, 14]: 40; Plant response rating, Wheat [8, 18]: 50; Plant response rating, Wheat [8, 12]: 35; Plant response rating, Wheat [8, 14]: 35; Plant response rating, Oat, Wild [9, 18]: 70; Plant response rating, Oat, Wild [9, 12]: 65; Plant response rating, Oat, Wild [9, 14]: 60; Plant response rating, Windgrass [10, 18]: 65; Plant response rating, Windgrass [10, 12]: 45; Plant response rating, Windgrass [10, 14]: 40
10 | CCc1nn(C(C)(C)C)nc1C(=O)Nc1cccc(C(=O)NC2CC2)c1 [Compound 417] | – | – | – | – | – | 35 | 30 | 20 | 20 | 60 | 60 | 50 | 35 | 45 | 40 | 30 | 50 | 40 | 35 | 60 | Plant response rating, Canarygrass [4, 18]: 55; Plant response rating, Bromegrass, Downy [5, 18]: 65; Plant response rating, Foxtail, Green [6, 18]: 65; Plant response rating, Foxtail, Green [6, 12]: 55; Plant response rating, Foxtail, Green [6, 14]: 50; Plant response rating, Ryegrass, Italian [7, 18]: 60; Plant response rating, Ryegrass, Italian [7, 12]: 40; Plant response rating, Ryegrass, Italian [7, 14]: 35; Plant response rating, Wheat [8, 18]: 35; Plant response rating, Wheat [8, 12]: 20; Plant response rating, Wheat [8, 14]: 20; Plant response rating, Oat, Wild [9, 18]: 60; Plant response rating, Oat, Wild [9, 12]: 40; Plant response rating, Oat, Wild [9, 14]: 35; Plant response rating, Windgrass [10, 18]: 55; Plant response rating, Windgrass [10, 12]: 40; Plant response rating, Windgrass [10, 14]: 40
